In patent US12325703B2, “Fused ring compound as FGFR and VEGFR dual inhibitor” (CGENETECH (SUZHOU, CHINA) CO., LTD., priority 2019, dated 2025):

Legend:
human VEGFR2 = molecular target: T1, human VEGFR2 (Homo sapiens, UniProt P35968); experiment: 33P isotope-labeled kinase activity test (Reaction Biology Corp), VEGFR2; assay type: biochemical; conditions: 33P-ATP 20 μM, kinase 1 nM, 120 min room temperature
T1 construct: purchased Invitrogen PR5992C
Experimental: (§1) The IC50 value was determined using ^33P isotope-labeled kinase activity test (Reaction Biology Corp) to evaluate the inhibitory ability of the compounds to be tested on human FGFR1, FGFR2 and VEGFR2.
(§2) Buffer conditions: 20 mM Hepes (pH 7.5), 10 mM MgCl2, 1 mM EGTA, 0.02% Brij35, 0.02 mg/mL BSA, 0.1 mM Na3VO4, 2 mM DTT, 1% DMSO.
(§3) Test steps: At room temperature, the compounds to be tested were dissolved in DMSO to prepare a 10 mM solution for use. The substrate was dissolved in the newly-prepared buffer, and the kinase to be tested was added thereto and mixed well. The DMSO solution in which the compounds to be tested were dissolved was added to the above-mentioned homogeneous reaction solution using acoustic technology (Echo 550). […] After incubating for 15 minutes, to the reaction solution was added ^33P-ATP (activity: 0.01 μCi/μL, with corresponding concentration listed in Table 10) to start the reaction. […] The kinase activity data was expressed by comparing the kinase activity of the groups containing the compounds to be tested with that of the blank group (containing only DMSO). The IC50 value was obtained by curve fitting using Prism4 software (GraphPad), and the experimental results were shown in Table 11.

human FGFR1 = molecular target: T2, human FGFR1 (Homo sapiens, UniProt P11362); experiment: 33P isotope-labeled kinase activity test (Reaction Biology Corp), FGFR1; assay type: biochemical; conditions: 33P-ATP 5 μM, kinase 1.5 nM, 120 min room temperature
T2 construct: purchased Invitrogen PV3146
Experimental: as §1, §2, §3

human FGFR2 = molecular target: T3, human FGFR2 (Homo sapiens, UniProt P21802); experiment: 33P isotope-labeled kinase activity test (Reaction Biology Corp), FGFR2; assay type: biochemical; conditions: 33P-ATP 5 μM, kinase 0.45 nM, 120 min room temperature
T3 construct: purchased Invitrogen PV3368
Experimental: as §1, §2, §3

[1] = Pharmacokinetic study in mice, cassette intravenous injection and intragastric administration; assay type: in vivo; conditions: mouse, plasma, Balb/c female mice; for Vd / AUC(0-t) / clearance / half-life: IV 0.2 mg/kg; for Vd: read-out: Apparent volume of distribution Vdss; for AUC(0-t): read-out: Area under the plasma concentration-time curve from time zero to 24 hours AUC0-24 h; for clearance: read-out: Clearance rate CL; for half-life: read-out: Half-life T1/2 (converted); for bioavailability: PO 1 mg/kg vs IV 0.2 mg/kg, read-out: Bioavailability F; for AUC / Cmax / Tmax: PO 1 mg/kg; for AUC: read-out: Area under the plasma concentration-time curve AUC; for Cmax: read-out: Peak concentration Cmax; for Tmax: read-out: Time to peak Tmax
Experimental: To evaluate the pharmacokinetic behavior of the compounds of the present disclosure after Cassette intravenous injection and intragastric administration, and to investigate the bioavailability thereof after intragastric administration.
Balb/c female mice aged 7 to 10 weeks were selected, and administered intravenously and orally with the doses of 0.2 mg/kg and 1 mg/kg, respectively. The mice were fasted for at least 12 hours before administration, and feeding was resumed after 4 hours of administration. The mice were free to drink water during the entire experiment. In this experiment, Cassette administration was used, and with regard to the intravenous injection group: an appropriate amount of each compound was weighed, and mixed with 5% DMSO/10% Solutol/85% Water for vortexing to prepare a 0.1 mg/mL of clear solution; the clear solution was filtered with a microporous membrane for later use; and with regard to the intragastric administration group: an appropriate amount of each compound was weighted, and mixed with 90% (25% HP-β-CD/10% Cremophor EL) with pH being adjusted to 4 to 5 to prepare a homogeneous suspension for later use. On the day of the experiment, the animals in the intravenous injection group were administrated with the corresponding compounds via tail vein single injection, with the administration volume of 2 mL/kg; and the animals in the oral group were administrated with the corresponding compounds by single intragastric administration, with the administration volume of 10 mL/kg. The body weight of the animals was weighed before administration, and the administration volume was calculated based on the body weight. The sample collection time was: 0.083 (injection group) h, 0.25 h, 0.5 h, 1 h, 2 h, 4 h, 8 h, and 24 h. Approximately 30 uL of whole blood was collected from the saphenous vein at each time point to prepare plasma for high performance liquid chromatography-tandem mass spectrometry (LC-MS/MS) to determine the concentration. All animals were euthanized by CO2 anesthesia after PK samples at the last time point were collected. The non-compartmental model of WinNonlin™ Version 6.3 (Pharsight, Mountain View, CA) pharmacokinetic software was used to process the plasma concentration, and the pharmacokinetic parameters were calculated using the linear logarithmic trapezoidal method.

[2] = system: human gastric cancer SNU-16 cells expressing FGFR2; experiment: Cell activity (proliferation) test of gastric cancer cell line SNU-16, CellTiter-Glo; assay type: cell-based; conditions: inhibition of proliferation
Experimental: To test the inhibitory effect of the compounds on the proliferation of human gastric cancer SNU-16 cells expressing FGFR2.
The compounds used in the test were subjected to 3-fold concentration dilution, the concentration starting from 10 μM and subjected to […], resulting in 9 concentrations: 10 μM, 2.50 μM, 0.62 μM, 0.156 μM, 39.1 nM, 9.8 nM, 2.4 nM, 0.61 nM, and 0.15 nM.
(1) Promega CellTiter-Glo luminescent cell viability assay kit (Promega-G7573).
(2) 2104 EnVision multi-tag reader, PerkinElmer.
The inhibition rate of different doses of the compounds would be calculated in the Excel file, and the IC50 data was obtained by parametric curve fitting (GraphPad Software).

[3] = system: human gastric cancer SNU-16 subcutaneous xenograft tumor; experiment: Anti-tumor activity in mouse subcutaneous xenograft tumor model of human gastric cancer SNU-16; assay type: in vivo, nude mice; conditions: day 25, SNU-16 xenograft
Experimental: To determine the anti-tumor effect of the compounds of the present disclosure in a mouse subcutaneous xenograft tumor model of human gastric cancer SNU-16
preparation of tumor tissues: SNU-16 cells were routinely cultured in an RPMI-1640 culture medium containing 10% fetal bovine serum under the conditions of 5% CO2, 37° C. and saturated humidity.
Each animal was inoculated with 200 μL (8×10^6 cells/mouse) to establish a SNU-16 xenograft model. The animal status was observed regularly, and the tumor diameter was measured with an electronic vernier caliper. The data was input into an Excel spreadsheet to calculate tumor volume and monitor tumor growth.
3) The tumor diameter was measured twice a week to calculate the tumor volume, and the animal body weight was weighted and recorded.
The calculation formula of tumor volume (TV) was: TV (mm^3)=1×w^2/2, where 1 represented the long diameter of the tumor (mm); w represented the short diameter of the tumor (mm).
The anti-tumor efficacy of the compounds was evaluated by TGI (%) or relative tumor proliferation rate T/C (%). […] The relative tumor volume (RTV) was calculated according to the results of the tumor measurement. The calculation formula was RTV=Vt/V0, where V0 was the tumor volume measured at the beginning of the grouping and administration (i.e., D0), and Vt was the tumor volume corresponding to a certain measurement in the mouse. […]

[4] = molecular target: T4, hERG potassium ion channel (Homo sapiens, UniProt Q12809); experiment: Inhibition test of hERG potassium ion channel, full-automatic patch clamp (Qpatch), CHO-hERG cells; assay type: cell-based; conditions: highest test concentration 40 μM
T4 construct: expressed in transfected cells; host or cells: CHO-hERG cells
Experimental: To detect the effect of the compounds of the present disclosure to be tested on the hERG potassium ion channel using a full-automatic patch clamp method.
1.1 CHO-hERG cells were cultured in a 175 cm^2 culture bottle, and once the cells grow to a density of 60% to 80%, the culture solution was removed; and the cells were washed with 7 mL of PBS (Phosphate Buffered Saline), and then digested by adding 3 mL of Detachin.
1.2 After the digestion was complete, 7 mL of culture solution was added for neutralization, and the mixture was centrifuged; and the supernatant was pipetted out, and then 5 mL of culture solution was added for resuspension to ensure that the cells reached a density of 2 to 5×10^6/mL.
The single-cell high-impedance sealing and the whole-cell mode formation process were all automatically completed by the Qpatch instrument. After the whole-cell recording mode was obtained, the cells were clamped at −80 millivolt; before a 5 second +40 millivolt depolarization stimulus was given, a 50 millisecond −50 millivolt pre-voltage was given, then repolarized to −50 millivolt for 5 seconds, and then returned to −80 millivolt. Such a voltage stimulus was applied every 15 seconds and recorded for 2 minutes, and then extracellular fluid was given and recorded for 5 minutes, followed by drug administration. […]
The experimental data was analyzed by GraphPad Prism 5.0 software. […]

T2 sequence (P11362 22-822): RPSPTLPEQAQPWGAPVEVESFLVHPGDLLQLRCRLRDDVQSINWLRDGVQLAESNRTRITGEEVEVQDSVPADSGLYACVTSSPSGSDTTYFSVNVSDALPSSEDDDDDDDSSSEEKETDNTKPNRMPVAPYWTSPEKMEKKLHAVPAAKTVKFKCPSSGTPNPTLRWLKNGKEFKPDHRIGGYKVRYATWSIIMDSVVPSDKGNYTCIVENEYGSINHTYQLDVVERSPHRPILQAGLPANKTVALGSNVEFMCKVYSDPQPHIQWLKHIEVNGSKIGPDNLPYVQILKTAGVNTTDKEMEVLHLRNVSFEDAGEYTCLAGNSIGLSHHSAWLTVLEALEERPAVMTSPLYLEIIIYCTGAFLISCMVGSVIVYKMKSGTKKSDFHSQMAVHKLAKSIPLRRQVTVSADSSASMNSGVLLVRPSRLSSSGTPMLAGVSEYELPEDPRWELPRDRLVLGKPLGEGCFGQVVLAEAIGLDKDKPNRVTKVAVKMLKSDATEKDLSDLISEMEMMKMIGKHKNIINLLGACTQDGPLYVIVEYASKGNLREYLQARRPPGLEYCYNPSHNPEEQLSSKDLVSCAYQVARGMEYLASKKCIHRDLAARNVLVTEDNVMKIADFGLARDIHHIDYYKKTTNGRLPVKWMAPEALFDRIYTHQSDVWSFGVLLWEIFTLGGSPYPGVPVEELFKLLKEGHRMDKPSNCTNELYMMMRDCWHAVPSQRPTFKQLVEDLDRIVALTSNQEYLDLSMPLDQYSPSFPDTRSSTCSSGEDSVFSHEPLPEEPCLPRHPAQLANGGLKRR
T3 sequence (P21802 22-821): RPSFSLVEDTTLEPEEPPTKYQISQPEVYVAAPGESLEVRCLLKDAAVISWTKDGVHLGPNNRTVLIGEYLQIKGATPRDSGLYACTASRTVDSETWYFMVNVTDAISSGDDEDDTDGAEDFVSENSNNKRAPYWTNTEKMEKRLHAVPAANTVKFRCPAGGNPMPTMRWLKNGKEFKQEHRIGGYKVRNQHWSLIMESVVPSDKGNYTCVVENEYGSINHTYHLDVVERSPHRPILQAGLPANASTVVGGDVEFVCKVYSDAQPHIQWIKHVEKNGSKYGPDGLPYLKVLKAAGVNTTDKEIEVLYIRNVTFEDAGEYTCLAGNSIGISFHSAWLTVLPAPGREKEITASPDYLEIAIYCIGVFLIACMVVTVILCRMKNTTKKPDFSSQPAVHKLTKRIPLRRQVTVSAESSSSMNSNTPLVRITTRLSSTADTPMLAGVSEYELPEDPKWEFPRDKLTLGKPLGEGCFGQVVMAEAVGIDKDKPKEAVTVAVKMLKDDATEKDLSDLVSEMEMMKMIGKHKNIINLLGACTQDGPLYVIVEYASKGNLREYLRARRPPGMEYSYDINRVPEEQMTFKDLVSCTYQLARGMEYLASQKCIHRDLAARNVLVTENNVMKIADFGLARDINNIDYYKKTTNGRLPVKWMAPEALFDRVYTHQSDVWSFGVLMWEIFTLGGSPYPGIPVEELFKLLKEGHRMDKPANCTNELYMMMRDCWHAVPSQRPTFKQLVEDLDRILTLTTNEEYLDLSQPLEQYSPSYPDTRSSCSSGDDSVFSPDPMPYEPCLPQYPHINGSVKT
T4 sequence (Q12809 whole entry): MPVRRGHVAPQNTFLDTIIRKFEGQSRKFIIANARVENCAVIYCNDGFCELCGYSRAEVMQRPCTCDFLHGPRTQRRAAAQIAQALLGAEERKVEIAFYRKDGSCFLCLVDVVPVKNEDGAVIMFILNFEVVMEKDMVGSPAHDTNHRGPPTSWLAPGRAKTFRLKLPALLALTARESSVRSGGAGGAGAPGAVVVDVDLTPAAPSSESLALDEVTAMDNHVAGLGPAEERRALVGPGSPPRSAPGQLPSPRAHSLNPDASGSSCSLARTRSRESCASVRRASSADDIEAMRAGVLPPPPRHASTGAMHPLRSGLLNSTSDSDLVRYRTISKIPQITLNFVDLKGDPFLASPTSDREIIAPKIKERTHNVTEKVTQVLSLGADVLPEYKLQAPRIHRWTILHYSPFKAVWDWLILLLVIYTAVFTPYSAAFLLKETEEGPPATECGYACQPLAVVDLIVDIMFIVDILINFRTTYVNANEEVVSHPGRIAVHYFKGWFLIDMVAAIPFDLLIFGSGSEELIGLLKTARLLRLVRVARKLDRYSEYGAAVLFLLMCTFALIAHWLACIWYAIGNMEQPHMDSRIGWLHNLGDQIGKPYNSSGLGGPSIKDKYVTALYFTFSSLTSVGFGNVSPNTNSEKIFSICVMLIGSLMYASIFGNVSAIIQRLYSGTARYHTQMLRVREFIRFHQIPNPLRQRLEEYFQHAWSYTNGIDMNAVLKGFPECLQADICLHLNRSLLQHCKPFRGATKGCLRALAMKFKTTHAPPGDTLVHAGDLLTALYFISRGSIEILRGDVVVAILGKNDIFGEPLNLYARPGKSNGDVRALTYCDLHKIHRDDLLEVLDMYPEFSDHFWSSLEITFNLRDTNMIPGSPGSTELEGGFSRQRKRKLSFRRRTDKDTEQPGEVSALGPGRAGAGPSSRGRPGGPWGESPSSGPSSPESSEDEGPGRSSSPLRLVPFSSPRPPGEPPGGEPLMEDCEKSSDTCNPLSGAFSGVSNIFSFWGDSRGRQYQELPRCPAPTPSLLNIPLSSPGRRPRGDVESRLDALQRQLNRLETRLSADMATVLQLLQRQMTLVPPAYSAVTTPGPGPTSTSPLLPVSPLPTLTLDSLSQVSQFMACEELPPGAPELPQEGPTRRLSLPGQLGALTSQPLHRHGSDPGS
T1 sequence (P35968 20-1356): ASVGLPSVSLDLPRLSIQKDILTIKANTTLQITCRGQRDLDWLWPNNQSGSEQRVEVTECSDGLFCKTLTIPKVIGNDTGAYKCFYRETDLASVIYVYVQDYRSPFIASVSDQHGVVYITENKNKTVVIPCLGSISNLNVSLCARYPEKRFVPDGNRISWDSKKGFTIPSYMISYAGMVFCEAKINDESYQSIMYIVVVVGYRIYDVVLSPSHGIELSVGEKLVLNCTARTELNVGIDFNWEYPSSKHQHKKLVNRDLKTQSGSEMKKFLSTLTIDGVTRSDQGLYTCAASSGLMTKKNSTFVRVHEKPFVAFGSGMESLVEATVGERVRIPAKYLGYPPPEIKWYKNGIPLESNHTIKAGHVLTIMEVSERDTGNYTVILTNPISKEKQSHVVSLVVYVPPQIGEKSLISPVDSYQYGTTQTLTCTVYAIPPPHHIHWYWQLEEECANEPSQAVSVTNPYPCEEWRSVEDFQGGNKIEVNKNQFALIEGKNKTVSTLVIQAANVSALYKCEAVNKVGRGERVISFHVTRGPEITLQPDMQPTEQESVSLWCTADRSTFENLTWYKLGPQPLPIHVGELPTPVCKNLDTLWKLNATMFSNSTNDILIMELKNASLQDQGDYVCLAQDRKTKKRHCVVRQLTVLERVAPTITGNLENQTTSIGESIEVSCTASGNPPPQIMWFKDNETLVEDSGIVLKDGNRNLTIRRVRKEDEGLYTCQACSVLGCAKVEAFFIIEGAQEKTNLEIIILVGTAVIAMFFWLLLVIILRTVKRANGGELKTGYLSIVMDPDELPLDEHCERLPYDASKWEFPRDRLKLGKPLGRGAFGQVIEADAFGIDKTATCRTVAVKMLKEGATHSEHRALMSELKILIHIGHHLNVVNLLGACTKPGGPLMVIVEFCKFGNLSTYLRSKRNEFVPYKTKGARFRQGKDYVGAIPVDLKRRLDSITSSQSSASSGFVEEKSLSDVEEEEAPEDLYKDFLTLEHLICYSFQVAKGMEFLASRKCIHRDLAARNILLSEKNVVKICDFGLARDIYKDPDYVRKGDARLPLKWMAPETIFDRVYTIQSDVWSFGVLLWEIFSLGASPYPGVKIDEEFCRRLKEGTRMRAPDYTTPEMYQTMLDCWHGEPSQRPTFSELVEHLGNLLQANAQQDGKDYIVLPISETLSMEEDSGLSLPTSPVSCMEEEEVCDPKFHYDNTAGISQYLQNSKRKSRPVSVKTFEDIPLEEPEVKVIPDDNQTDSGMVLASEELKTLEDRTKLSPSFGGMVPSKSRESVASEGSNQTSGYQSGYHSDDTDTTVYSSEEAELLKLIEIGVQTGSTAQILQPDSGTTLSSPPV

| SMILES | IC50 (human VEGFR2) | IC50 (human FGFR1) | IC50 (human FGFR2) | Vd [1] | AUC(0-t) [1] | clearance [1] | half-life [1] | bioavailability [1] | AUC [1] | Cmax [1] | Tmax [1] | IC50 [2] | TGI (%) (tumor growth inhibition rate) on day 25 ([3]; PO 20/30/20 mpk/QD (30 mg/kg/day from day 9, 20 mg/kg/day from day 12)) | IC50 [4] | TGI (%) (tumor growth inhibition rate) on day 25 ([3]; PO 10 mpk/QD) |
| --- | --- | --- | --- | --- | --- | --- | --- | --- | --- | --- | --- | --- | --- | --- | --- |
| Cn1cc(-c2ccc3c(c2)ncn3-c2cc(NS(=O)(=O)C3CC3)cc(-c3ccc(F)cc3F)c2)cn1 [reference compound] | 27.2 nM | 22.2 nM | 29.9 nM |  |  |  |  |  |  |  |  |  |  |  |  |
| Cn1cc(-c2ccc3c(-c4cc(NS(=O)(=O)C5CC5)cc(-c5ccc(F)cc5F)c4)cnn3c2)cn1 [Compound 1] |  | 6.29 nM |  | 1.25 L/kg | 0.751 µM·h | 8.53 mL/min/kg | 1.52 h | 74% | 2.48 µM·h | 540 nM | 2 h |  |  |  |  |
| Cn1cc(-c2ccc3c(-c4cc(NS(C)(=O)=O)cc(-c5ccc(F)cc5F)c4)cnn3c2)cn1 [Compound 4] |  | 1.63 nM | 2.5 nM | 1.4 L/kg | 0.548 µM·h | 12.6 mL/min/kg | 1.17 h | 73.2% | 1.9 µM·h | 463 nM | 2 h | 14.5 nM | 70% |  |  |
| Cn1cc(-c2cnc3c(-c4cc(NS(=O)(=O)C5CC5)cc(-c5ccc(F)cc5F)c4)cnn3c2)cn1 [Compound 5] |  | 9.34 nM |  |  |  |  |  |  |  |  |  |  |  | > 40000 nM |  |
| CCS(=O)(=O)Nc1cc(-c2ccc(F)cc2F)cc(-c2cnn3cc(-c4cnn(C)c4)ccc23)c1 [Compound 2] |  | 2.86 nM | 2.66 nM | 1.2 L/kg | 1.14 µM·h | 6.53 mL/min/kg | 2.12 h | 43.8% | 1.98 µM·h | 388 nM | 2 h | 16.3 nM |  | > 40000 nM | 74% |
